Laboratory results as given in paper PMC6695681, “Hydrophobic Interactions Drive Binding between Vascular Endothelial Growth Factor-A (VEGFA) and Polyphenolic Inhibitors” (Molecules, 2019).
Where “and” joins values, the source holds several entries; their conditions need not be identical. Equal entries are not always repeated. Where two headings read alike, the source gives them in different places. One block for each compound: values may come before it.

Legend:
[1] = tested on: VEGF-dependent VEGFR2 activation in HUVEC cells; parameters: method as in Cerezo et al. [1]; conditions: ref Cerezo et al. [1], read-out: IC50 (concentration causing 50% inhibition of VEGF activation in HUVEC cells), cited from earlier work
VEGF-165 [2] = biological target: T1, VEGF-165 (Homo sapiens, UniProt P15692); assay: Surface plasmon resonance binding of polyphenols to immobilised VEGF165; conditions: for koff: read-out: dissociation rate constant kd; for dissociation rate at 20 °C compared with 37 °C: 20 °C vs 37 °C, Figure 3B;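 for all read-outs here: running buffer PBST with 1% DMSO, sensorgrams double referenced against a VEGF-free reference cell and blank injections, kinetics fitted to a 1:1 Langmuir binding model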
T1 construct: purchased ReliaTech GmbH (Wolfenbüttel, Germany)
T1 sequence (P15692 27-191 isoform P15692-4 limits assumed): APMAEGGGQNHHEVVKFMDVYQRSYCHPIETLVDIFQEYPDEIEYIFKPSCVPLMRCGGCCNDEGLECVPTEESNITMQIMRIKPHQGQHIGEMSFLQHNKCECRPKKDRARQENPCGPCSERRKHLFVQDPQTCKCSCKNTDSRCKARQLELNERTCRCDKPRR

VEGF = biological target: T2, VEGF (Homo sapiens, UniProt P15692); assay: SDS-page gels of VEGF treated with polyphenol, reducing and non-reducing conditions
T2 construct: purchased ReliaTech GmbH (Wolfenbüttel, Germany)
T2 sequence (P15692 27-191 isoform P15692-4 limits assumed): T1 sequence (P15692 27-191 isoform P15692-4 limits assumed)
Description: Binding occurs when intermolecular forces are established between VEGF and the phenolic ligand. […] Therefore, the interactions between VEGF and inhibitor polyphenols are likely to be non-covalent in nature. These forces could be the result of various interactions between the protein, the ligand, and the environment and are likely to be predominantly based on electrostatic (H bonding) and hydrophobic forces.
Figure 2 SDS-page gels of control (VEGF) and treatments (VEGF and apple procyanidin fraction dp4 or EGCG under (A) reducing conditions and (B) Non-reducing conditions.

VEGF-165 [3] = biological target: T1, VEGF-165; assay: Far-UV circular dichroism of VEGF secondary structure upon binding EGCG
Protocol: Circular dichroism (CD) in the far UV range (180–260 nm) was used to determine whether the secondary structure of VEGF changed upon binding EGCG. Circular dichroism spectra were measured for a fixed concentration of VEGF-165 (0.22 nmoles in 50 µL) with increasing amounts of EGCG (0, 1.36, 5.45 and 10.91 nmoles) and the spectra obtained are shown in Figure 4. Analysis of the spectra indicated the predominant features in the secondary structure of VEGF165 were random coil (unordered) and β-sheet, followed by smaller percentages of α-helix and turns. After adding EGCG at a mole ratio of 1:50 VEGF:EGCG, the VEGF secondary structure was altered with increases of 65% and 33% in α-helix and turns respectively, a reduction in the percentage of β-strands of 88%, and only a 3% reduction in the predominant unordered structure.
Circular Dichroism (CD) spectra were recorded using a Jasco J-715 spectropolarimeter (Easton, MD, USA) over a wavelength range of 185–260 nm in PBS solvent with 1% ethanol, using a quartz demountable CD cell with a path length of 0.1 mm. Averages of three runs of the protein spectra were collected a 37 °C at a scan speed of 20 nm/min and a band width of 1.0 nm. To account for any background effect the protein in buffer alone, the EGCG molecule in buffer alone, and the buffer alone were also measured. After background correction the spectra were converted to units of delta epsilon. Dichroweb analysis server http://dichroweb.cryst.bbk.ac.uk was used to analyse and estimate on line the secondary structure contents.

[4] = PBST, 37 °C, read-out: association rate constant ka
[5] = PBST, 37 °C, read-out: equilibrium constant KD
[6] = PBST, 37 °C (control runs of Table 2)

- kon (VEGF-165 [2]; [4]): 131 M⁻¹ s⁻¹
- koff (VEGF-165 [2]; PBST, 37 °C): 0.00399 s⁻¹
- Kd (VEGF-165 [2]; [5]): 25000 nM and 24600 nM
Compound: Oc1cc(O)c2c(c1)O[C@H](c1ccc(O)c(O)c1)[C@@H](O)C2 [(+) Catechin]
- IC50 [1]: 215000 nM

- kon (VEGF-165 [2]; [4]): 323 M⁻¹ s⁻¹
- koff (VEGF-165 [2]; PBST, 37 °C): 0.000696 s⁻¹
- Kd (VEGF-165 [2]; [5]): 2710 nM
Compound: Oc1cc(O)c2c(c1)O[C@H](c1ccc(O)c(O)c1)[C@H](O)C2 [(-) Epicatechin]

- kon (VEGF-165 [2]; [4]): 8240 M⁻¹ s⁻¹
- koff (VEGF-165 [2]; PBST, 37 °C): 0.000633 s⁻¹
- Kd (VEGF-165 [2]; [5]): 35 nM and 34.8 nM
Compound: O=C(O[C@@H]1Cc2c(O)cc(O)cc2O[C@@H]1c1ccc(O)c(O)c1)c1cc(O)c(O)c(O)c1 [Epicatechin gallate (ECG), Epicatechin gallate]
- IC50 [1]: 160 nM

Compound: O=C(O[C@@H]1Cc2c(O)cc(O)cc2O[C@@H]1c1cc(O)c(O)c(O)c1)c1cc(O)c(O)c(O)c1 [Epigallocatechin gallate (EGCG), Epigallocatechin gallate]
- change in migration of treated VEGF on SDS page gels (VEGF): no change in migration
- position of the negative band in CD far UV spectra (VEGF-165 [3]; EGCG mixed with VEGF, 201 nm for VEGF alone): 211 nm
- time taken by conformational changes in VEGF (VEGF-165 [3]; after mixing with EGCG): less than 90 s
- increase in turns of VEGF secondary structure (VEGF-165 [3]; mole ratio 1:50 VEGF:EGCG): 33%
- increase in α-helix of VEGF secondary structure (VEGF-165 [3]; mole ratio 1:50 VEGF:EGCG): 65%
- reduction in the percentage of β-strands of VEGF (VEGF-165 [3]; mole ratio 1:50 VEGF:EGCG): 88%
- reduction in the predominant unordered structure of VEGF (VEGF-165 [3]; mole ratio 1:50 VEGF:EGCG): 3%
- IC50 ([1]; listed as EGCG): 88 nM
- IC50 [1]: 90 nM
- dissociation rate at 20 °C compared with 37 °C (VEGF-165 [2]): higher at 20 °C than at 37 °C
- kd (VEGF-165 [2]; PBST + 0.5 M NaCl, 37 °C): 0.00037 ± 4e-05 s⁻¹
- Kd (VEGF-165 [2]; PBST + 0.5 M NaCl, 37 °C, read-out: KD): 60 nM
- kon (VEGF-165 [2]; PBST + 0.5 M NaCl, 37 °C, read-out: ka): 5180 ± 92 M⁻¹ s⁻¹
- kd (VEGF-165 [2]; PBST + 1 M NaCl, 37 °C): 0.00033 ± 4e-05 s⁻¹
- Kd (VEGF-165 [2]; PBST + 1 M NaCl, 37 °C, read-out: KD): 35 nM
- kon (VEGF-165 [2]; PBST + 1 M NaCl, 37 °C, read-out: ka): 6500 ± 260 M⁻¹ s⁻¹
- kd (VEGF-165 [2]; PBST + 1 M urea, 37 °C): 0.00036 ± 2.1e-05 s⁻¹
- Kd (VEGF-165 [2]; PBST + 1 M urea, 37 °C, read-out: KD): 71 nM
- kon (VEGF-165 [2]; PBST + 1 M urea, 37 °C, read-out: ka): 5160 ± 100 M⁻¹ s⁻¹
- kd (VEGF-165 [2]; PBST + 10% ethanol, 37 °C): 0.0017 ± 7e-05 s⁻¹
- Kd (VEGF-165 [2]; PBST + 10% ethanol, 37 °C, read-out: KD): 810 nM
- kon (VEGF-165 [2]; PBST + 10% ethanol, 37 °C, read-out: ka): 2460 ± 60 M⁻¹ s⁻¹
- kd (VEGF-165 [2]; PBST + 10 M ethylene glycol, 37 °C): 0.00026 ± 5.2e-05 s⁻¹
- Kd (VEGF-165 [2]; PBST + 10 M ethylene glycol, 37 °C, read-out: KD): 420 nM
- kon (VEGF-165 [2]; PBST + 10 M ethylene glycol, 37 °C, read-out: ka): 796 ± 45 M⁻¹ s⁻¹
- kd (VEGF-165 [2]; PBST + 30% ethanol, 37 °C): 0.0002 ± 5e-05 s⁻¹
- Kd (VEGF-165 [2]; PBST + 30% ethanol, 37 °C, read-out: KD): 470 nM
- kon (VEGF-165 [2]; PBST + 30% ethanol, 37 °C, read-out: ka): 482 ± 21 M⁻¹ s⁻¹
- ka (VEGF-165 [2]; [6]): 5184 ± 64 M⁻¹ s⁻¹ and 6052 ± 64 M⁻¹ s⁻¹
- kd (VEGF-165 [2]; [6]): 0.00068 ± 2.9e-06 s⁻¹ and 0.00088 ± 5.2e-05 s⁻¹ and 0.00072 ± 5e-05 s⁻¹
- Kd (VEGF-165 [2]; PBST, 37 °C (control runs of Table 2), read-out: KD): 110 nM and 170 nM and 140 nM
- kon (VEGF-165 [2]; PBST, 37 °C (control runs of Table 2), read-out: ka): 6147 ± 52 M⁻¹ s⁻¹
- kon (VEGF-165 [2]; [4]): 6300 M⁻¹ s⁻¹
- koff (VEGF-165 [2]; PBST, 37 °C): 0.000625 s⁻¹
- Kd (VEGF-165 [2]; [5]): 112 nM

Compound: O=C(O)c1cc(O)c(O)c(O)c1 [Gallic acid]
- kon (VEGF-165 [2]; [4]): 166 M⁻¹ s⁻¹
- koff (VEGF-165 [2]; PBST, 37 °C): 0.000391 s⁻¹
- Kd (VEGF-165 [2]; [5]): 5520 nM

Compound: O=c1c(O)c(-c2cc(O)c(O)c(O)c2)oc2cc(O)cc(O)c12 [Myricetin]
- IC50 ([1]; listed as myricetin): 121 nM
- IC50 [1]: 120 nM
- Kd (VEGF-165 [2]; [5]): 4460 nM

- kon (VEGF-165 [2]; [4]): 548 M⁻¹ s⁻¹
- koff (VEGF-165 [2]; PBST, 37 °C): 0.001 s⁻¹
- Kd (VEGF-165 [2]; [5]): 637 nM
Compound: Oc1cc(O)c2c(c1)OC(c1ccc(O)c(O)c1)C(O)C2c1c(O)cc(O)c2c1OC(c1ccc(O)c(O)c1)C(O)C2 (stereo not shown) [Procyanidin Dp2]
- IC50 [1]: 52600 nM

- dissociation rate at 20 °C compared with 37 °C (VEGF-165 [2]): higher at 20 °C than at 37 °C
- kon (VEGF-165 [2]; [4]): 2910 M⁻¹ s⁻¹
- koff (VEGF-165 [2]; PBST, 37 °C): 0.00093 s⁻¹
- Kd (VEGF-165 [2]; [5]): 351 nM
Compound: Oc1cc(O)c2c(c1)OC(c1ccc(O)c(O)c1)C(O)C2c1c(O)cc(O)c2c1OC(c1ccc(O)c(O)c1)C(O)C2c1c(O)cc(O)c2c1OC(c1ccc(O)c(O)c1)C(O)C2 (stereo not shown) [Procyanidin Dp3]
- IC50 [1]: 780 nM

- dissociation rate at 20 °C compared with 37 °C (VEGF-165 [2]): higher at 20 °C than at 37 °C
- Kd (VEGF-165 [2]; [5]): 341 nM
Compound: Oc1cc(O)c2c(c1)OC(c1ccc(O)c(O)c1)C(O)C2c1c(O)cc(O)c2c1OC(c1ccc(O)c(O)c1)C(O)C2c1c(O)cc(O)c2c1OC(c1ccc(O)c(O)c1)C(O)C2c1c(O)cc(O)c2c1OC(c1ccc(O)c(O)c1)C(O)C2c1c(O)cc(O)c2c1OC(c1ccc(O)c(O)c1)C(O)C2c1c(O)cc(O)c2c1OC(c1ccc(O)c(O)c1)C(O)C2c1c(O)cc(O)c2c1OC(c1ccc(O)c(O)c1)C(O)C2c1c(O)cc(O)c2c1OC(c1ccc(O)c(O)c1)C(O)C2c1c(O)cc(O)c2c1OC(c1ccc(O)c(O)c1)C(O)C2 (stereo not shown) [Procyanidin Dp9]

Compound: O=c1c(O)c(-c2ccc(O)c(O)c2)oc2cc(O)c(O)c(O)c12 [Quercetagetin]
- IC50 [1]: 100 nM
- kon (VEGF-165 [2]; [4]): 858 M⁻¹ s⁻¹
- koff (VEGF-165 [2]; PBST, 37 °C): 0.000826 s⁻¹
- Kd (VEGF-165 [2]; [5]): 934 nM
